The assay has as its target T1, CFTR (Homo sapiens, UniProt P13569, DEL508-508).
T1 construct: endogenous in cells; host or cells: primary human bronchial epithelial cells from CF subjects (F508del/MF-HBE), differentiated at air-liquid interface
In words: HBE assay: Ussing chamber assay of CFTR-mediated short-circuit currents. The format is cell-based. Particulars: for EC50: read-out: HBE EC50. In a few lines:
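CFTR-mediated Isc (μA/cm²) equals the peak response to apical 20 μM forskolin minus the residual after a 20 μM each BPO/GlyH-101/CFTR inhibitor 172 cocktail, recorded in Ussing chambers at Vhold 0 mV, 37 °C, pH 7.4, with 30 μM apical amiloride. Cells were F508del/MF HBE cultures preincubated 18-24 h with corrector (concentration range or 10 μM) plus 1 μM ivacaftor in 20% human serum.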

The mark [1] stands for this setting: Table 11, read-out: HBE Max Activity (%).
The mark [2] stands for this setting: Table 12, read-out: HBE Max Activity (%).
Where [3] appears, read: HBE assay, read-out: HBE Max activity (%).
The mark [4] stands for this setting: Table 10, read-out: HBE Max activity (%).
Where [5] appears, read: Table 13, at 10 μM, read-out: HBE Activity at 10 μM (%).
Setting [6] is: Table 12, at 10 μM, read-out: HBE Activity at 10 μM (%).
Where [7] appears, read: Table 13, read-out: HBE Max Activity (%).
[8] abbreviates: HBE assay, 10 μM, read-out: HBE Activity at 10 μM (%).

Molecules are shown by their SMILES. Where two headings read alike, the source gives them in different places.

What is called EC50 is the concentration needed to bring the measured effect to its halfway point.

T1 sequence (P13569 with tags, fused parts or gaps DEL508-508): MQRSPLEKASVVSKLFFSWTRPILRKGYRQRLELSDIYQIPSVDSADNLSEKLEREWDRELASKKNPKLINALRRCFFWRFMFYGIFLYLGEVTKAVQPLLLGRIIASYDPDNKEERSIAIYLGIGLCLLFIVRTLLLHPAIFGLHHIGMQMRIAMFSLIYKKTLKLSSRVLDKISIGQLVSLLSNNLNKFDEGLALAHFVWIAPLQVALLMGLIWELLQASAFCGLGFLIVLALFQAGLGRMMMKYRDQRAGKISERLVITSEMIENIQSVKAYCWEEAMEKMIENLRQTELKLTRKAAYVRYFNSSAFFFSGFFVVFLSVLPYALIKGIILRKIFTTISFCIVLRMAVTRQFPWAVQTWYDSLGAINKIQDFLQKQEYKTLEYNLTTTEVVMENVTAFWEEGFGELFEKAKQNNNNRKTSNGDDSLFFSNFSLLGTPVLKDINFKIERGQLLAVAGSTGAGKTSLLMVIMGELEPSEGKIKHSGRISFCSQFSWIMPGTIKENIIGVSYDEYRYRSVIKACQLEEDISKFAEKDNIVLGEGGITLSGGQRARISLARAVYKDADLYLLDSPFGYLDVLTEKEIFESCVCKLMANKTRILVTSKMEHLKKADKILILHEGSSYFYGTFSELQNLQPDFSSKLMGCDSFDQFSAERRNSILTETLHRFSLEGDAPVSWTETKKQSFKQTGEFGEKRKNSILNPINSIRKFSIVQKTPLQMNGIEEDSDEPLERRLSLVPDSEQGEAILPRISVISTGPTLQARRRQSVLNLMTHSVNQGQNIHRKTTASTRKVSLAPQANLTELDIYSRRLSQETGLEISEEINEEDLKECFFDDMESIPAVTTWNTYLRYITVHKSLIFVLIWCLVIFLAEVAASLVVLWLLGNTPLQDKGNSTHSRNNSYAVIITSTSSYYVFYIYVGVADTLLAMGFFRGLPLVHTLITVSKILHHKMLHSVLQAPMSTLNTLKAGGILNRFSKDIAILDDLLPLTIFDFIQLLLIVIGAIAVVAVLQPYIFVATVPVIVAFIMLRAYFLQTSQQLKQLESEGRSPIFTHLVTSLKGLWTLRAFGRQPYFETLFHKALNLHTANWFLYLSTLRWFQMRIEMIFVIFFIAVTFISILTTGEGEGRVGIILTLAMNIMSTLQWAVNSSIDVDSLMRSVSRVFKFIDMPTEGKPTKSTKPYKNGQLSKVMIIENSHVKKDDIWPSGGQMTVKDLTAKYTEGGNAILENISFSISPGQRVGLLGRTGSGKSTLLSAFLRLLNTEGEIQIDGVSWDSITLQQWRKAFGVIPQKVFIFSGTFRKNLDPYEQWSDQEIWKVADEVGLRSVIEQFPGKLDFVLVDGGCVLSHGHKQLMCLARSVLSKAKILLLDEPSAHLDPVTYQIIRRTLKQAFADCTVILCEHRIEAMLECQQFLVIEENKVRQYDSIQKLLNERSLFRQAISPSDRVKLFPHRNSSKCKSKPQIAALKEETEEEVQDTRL

In the case of `Cc1cccc(C)c1-c1cc2nc(n1)NS(=O)(=O)c1cccc(c1)C(=O)N(Cc1nccc(N(C)C3CCC3)n1)[C@H](CC(C)(C)C)CO2` [Compound 627], the half-maximal effective concentration (EC50) (Table 11) is less than 1000 nM. For the same compound, the Emax under setting [1] was more than 60%.

`Cc1cccc(C)c1-c1cc2nc(n1)NS(=O)(=O)c1cccc(c1)C(=O)N(Cc1cncc(N(C)CC(C)(C)C)n1)[C@H](C(C)C)CO2` [Compound 694]: the EC50 (Table 12) was less than 1000 nM. Moreover, under setting [2], the Emax is more than 60%.

`Cc1cccc(C)c1-c1cc2nc(n1)NS(=O)(=O)c1cccc(c1)C(=O)N(Cc1cccc(N3CCCC3)n1)[C@H](CC(C)(C)C)CO2` [Compound 630]: the EC50 (Table 11) is less than 1000 nM. The Emax under setting [1] is more than 60%.

Turning to `Cc1cccc(C)c1-c1cc2nc(n1)NS(=O)(=O)c1cccc(c1)C(=O)N(Cc1cnnn1C)[C@H](CC(C)(C)C)CO2` [Compound 774], under “Table 11, at 10 μM, read-out: HBE Activity at 10 μM (%)”, the activation at 10 µM is more than 60%.

As for `Cc1cccc(C)c1-c1cc2nc(n1)NS(=O)(=O)c1cccc(c1)C(=O)N(Cc1nc(N(C)C3CC4(CC4)C3)ccc1F)[C@H](CC(C)(C)C)CO2` [Compound 1300, (11R)-6-(2,6-Dimethylphenyl)-11-(2,2-dimethylpropyl)-12-[[3-fluoro-6-[methyl(spiro[2.3]hexan-5-yl)amino]-2-pyridyl]methyl]-2,2-dioxo-9-oxa-2λ^6-thia-3,5,12,19-tetrazatricyclo[12.3.1.14,8]nonadeca-1(18),4(19),5,7,14,16-hexaen-13-one], the concentration for a half-maximal effect (EC50) (HBE assay) was less than 1000 nM. The Emax under setting [3] is more than 60%.

As for `Cc1cccc(C)c1-c1cc2nc(n1)NS(=O)(=O)c1cccc(c1)C(=O)N(CC1CCC(O)(C(F)(F)F)CC1)[C@H](CC(C)(C)C)CO2` (stereo partly shown) [Compound 905], the EC50 (Table 10) was less than 1000 nM. Moreover, the Emax under setting [4] was more than 60%.

As to `Cc1cccc(C)c1-c1cc2nc(n1)NS(=O)(=O)c1cccc(c1)C(=O)N(Cc1ccc(C3COC(C)(C)C3)cn1)[C@H](CC(C)(C)C)CO2` (stereo partly shown) [Compound 1062], the activation at 10 µM under setting [5] was more than 600%.

Consider `Cc1cccc(C)c1-c1cc2nc(n1)NS(=O)(=O)c1cccc(c1)C(=O)N(Cc1ncc(OC(=O)OC(C)(C)C)cn1)[C@H](CC(C)(C)C)CO2` [Compound 557], for which the activation at 10 µM under setting [6] is more than 600%.

Turning to `Cc1cccc(C)c1-c1cc2nc(n1)NS(=O)(=O)c1cccc(c1)C(=O)N(Cc1cccc(N3CCC[C@@H]3C)n1)[C@H](CC(C)(C)C)CO2` [Compound 710], where the note is “Table 11”, the EC50 is less than 1000 nM. Under setting [1], the Emax is more than 60%.

With `Cc1cccc(C)c1-c1cc2nc(n1)NS(=O)(=O)c1cccc(c1)C(=O)N(Cc1cncc(N(C)C3CCCC3)n1)[C@H](CC(C)(C)C)CO2` [Compound 1387], the EC50 (HBE assay) is less than 1000 nM. Besides, under setting [3], the Emax is more than 60%.

With `Cc1cccc(C)c1-c1cc2nc(n1)NS(=O)(=O)c1cccc(c1)C(=O)N(Cc1ncc(C3CCC3)cn1)[C@H](CC(C)(C)C)CO2` [Compound 635], the EC50 (Table 11) lay in the range of 3000 to 30000 nM. Further, the Emax under setting [1] is more than 60%.

Turning to `COc1cnc(CN2C(=O)c3cccc(c3)S(=O)(=O)Nc3nc(cc(-c4c(C)cccc4C)n3)OC[C@H]2CC(C)(C)C)c(F)c1` [Compound 1112], for the setting “Table 13”, the EC50 is less than 1000 nM. The Emax under setting [7] was more than 60%.

Consider `Cc1cccc(C)c1-c1cc2nc(n1)NS(=O)(=O)c1cccc(c1)C(=O)N(Cc1ccccc1-c1c[nH]nc1C(F)(F)F)[C@H](CC(C)(C)C)CO2` [Compound 304], for which the activation at 10 µM (Table 10, at 10 μM, read-out: HBE activity at 10 (μM) (%)) is more than 60%.

Turning to `Cc1cccc(C)c1-c1cc2nc(n1)NS(=O)(=O)c1cccc(c1)C(=O)N(Cc1ncccc1OC(C)C)[C@H](CC(C)(C)C)CO2` [Compound 741], the EC50 (Table 11) is less than 1000 nM. Moreover, the Emax under setting [1] is more than 60%.

Take `Cc1cccc(C)c1-c1cc2nc(n1)NS(=O)(=O)c1cccc(c1)C(=O)N(Cc1ncccc1-c1c(C)n[nH]c1C)[C@H](CC(C)(C)C)CO2` [Compound 301]: the EC50 (Table 10) was less than 1000 nM. Moreover, the Emax under setting [4] was more than 60%.

Consider `Cc1cccc(C)c1-c1cc2nc(n1)NS(=O)(=O)c1cccc(c1)C(=O)N(Cc1ncc(N3CCC(C)(C)C3)cn1)[C@H](CC1CC1)CO2` [Compound 1464], for which, under “HBE assay”, the EC50 was less than 1000 nM. Besides, the Emax under setting [3] was more than 60%.

As for `COC1CN(c2cccc(CN3C(=O)c4cccc(c4)S(=O)(=O)Nc4nc(cc(-c5c(C)cccc5C)n4)OC[C@H]3CC(C)(C)C)n2)C(C)(C)C1` (stereo partly shown) [Compound 876], under “Table 12”, the EC50 is less than 1000 nM. For the same compound, the Emax under setting [2] is more than 60%.

With `Cc1cccc(C)c1-c1cc2nc(n1)NS(=O)(=O)c1cccc(c1)C(=O)N(Cc1ncc(OC3CCCCC3)cn1)[C@H](CC(C)(C)C)CO2` [Compound 561], the activation at 10 µM under setting [6] was more than 600%. For the setting “Table 12”, the EC50 is less than 1000 nM. Besides, the Emax under setting [2] was more than 60%.

For the compound `Cc1cccc(C)c1-c1cc2nc(n1)NS(=O)(=O)c1cccc(c1)C(=O)N(Cc1nc(C3CCC3)no1)[C@H](CC(C)(C)C)CO2` [Compound 1130], under setting [5], the activation at 10 µM is more than 600%.

For the compound `Cc1cccc(C)c1-c1cc2nc(n1)NS(=O)(=O)c1cccc(c1)C(=O)N(Cc1cccc(N3CCC34CCOCC4)n1)[C@H](CC(C)(C)C)CO2` [Compound 536], the activation at 10 µM under setting [5] was more than 600%. For the setting “Table 13”, the EC50 was less than 1000 nM. The Emax under setting [7] was more than 60%.

For the compound `Cc1cccc(C)c1-c1cc2nc(n1)NS(=O)(=O)c1cccc(c1)C(=O)N(Cc1nccc(N(C)C3CC4(CCC4)C3)n1)[C@H](CC(C)(C)C)CO2` [Compound 445], the EC50 (Table 12) is less than 1000 nM. Further, the Emax under setting [2] was more than 60%.

In the case of `CCC1CCC(NC(=O)CN2C(=O)c3cccc(c3)S(=O)(=O)Nc3nc(cc(-c4c(C)cccc4C)n3)OC[C@H]2CC(C)(C)C)CC1` (stereo partly shown) [Compound 192], the activation at 10 µM under setting [5] was more than 600%.

Regarding `Cc1cccc(C)c1-c1cc2nc(n1)NS(=O)(=O)c1cccc(c1)C(=O)N(Cc1ncc(OC3CC4(CC4)C3)cn1)[C@H](CC1CC1)CO2` [Compound 1478], where the note is “HBE assay”, the EC50 is less than 1000 nM. The Emax under setting [3] is more than 60%.

Regarding `Cc1cccc(C)c1-c1cc2nc(n1)NS(=O)(=O)c1cccc(c1)C(=O)N(Cc1ncc(N3CCC(C)(C)CC3)cc1F)[C@H](CC(C)(C)C)CO2` [Compound 522], the EC50 (Table 12) was less than 1000 nM. Further, under setting [2], the Emax is more than 60%.

For `Cc1cccc(C)c1-c1cc2nc(n1)NS(=O)(=O)c1cccc(c1)C(=O)N(Cc1ncc(C3CC4(CCC4)C3)cn1)[C@H](CC(C)(C)C)CO2` [Compound 160], under “Table 13”, the EC50 is less than 1000 nM. Besides, under setting [7], the Emax was more than 60%.

As for `COC[C@@H]1COCCN1c1cccc(CN2C(=O)c3cccc(c3)S(=O)(=O)Nc3nc(cc(-c4c(C)cccc4C)n3)OC[C@H]2CC(C)(C)C)n1` [Compound 1435], the activation at 10 µM under setting [8] was more than 60%.

`Cc1cccc(C)c1-c1cc2nc(n1)NS(=O)(=O)c1cccc(c1)C(=O)N(Cc1cncc(NC3CCOCC3)n1)[C@H](CC(C)(C)C)CO2` [Compound 1420]: the EC50 (HBE assay) was less than 1000 nM. For the same compound, the Emax under setting [3] was more than 60%.

Regarding `Cc1cccc(C)c1-c1cc2nc(n1)NS(=O)(=O)c1cccc(c1)C(=O)N(Cc1ncc(N3CCC(C)(C)CC3)cc1C(F)(F)F)[C@H](CC(C)(C)C)CO2` [Compound 1139], the 50% effective concentration (EC50) (Table 13) fell in the range of 1000 to 3000 nM. Also, the Emax under setting [7] was more than 60%.

On to `Cc1cccc(C)c1-c1cc2nc(n1)NS(=O)(=O)c1cccc(c1)C(=O)N(Cc1ccc(OCC(N)=O)cc1)[C@H](CC(C)(C)C)CO2` [Compound 780], for which the EC50 (Table 10) is less than 1000 nM. In addition, under setting [4], the Emax was more than 60%.

`Cc1cccc(C)c1-c1cc2nc(n1)NS(=O)(=O)c1cccc(c1)C(=O)N(CC(=O)N(C)CC1CCCOC1)[C@H](CC(C)(C)C)CO2` (stereo partly shown) [Compound 193]: the activation at 10 µM under setting [5] is more than 600%.

For `COc1ccc(CN2C(=O)c3cccc(c3)S(=O)(=O)Nc3nc(cc(-c4c(C)cccc4C)n3)OC[C@H]2CC(C)(C)C)nc1` [Compound 501], where the note is “Table 10”, the EC50 was less than 1000 nM. For the same compound, the Emax under setting [4] was more than 60%.

With `Cc1cccc(C)c1-c1cc2nc(n1)NS(=O)(=O)c1cccc(c1)C(=O)N(Cc1cccc(N3CCCC3(C)C)n1)[C@H](CC(C)(C)C)CO2` [Compound 592], the EC50 (Table 12) lay within 1000 to 3000 nM. The Emax under setting [2] is more than 60%.

`Cc1cccc(C)c1-c1cc2nc(n1)NS(=O)(=O)c1cccc(c1)C(=O)N(Cc1cc(OC(C)C)ccn1)[C@H](CC(C)(C)C)CO2` [Compound 1114]: the activation at 10 µM under setting [5] is more than 600%.

As to `COC[C@H]1CCCN1c1cnc(CN2C(=O)c3cccc(c3)S(=O)(=O)Nc3nc(cc(-c4c(C)cccc4C)n3)OC[C@H]2CC(C)(C)C)nc1` [Compound 570], the EC50 (Table 12) is less than 1000 nM. For the same compound, the Emax under setting [2] was more than 60%.

For the compound `Cc1cccc(C)c1-c1cc2nc(n1)NS(=O)(=O)c1cccc(c1)C(=O)N(Cc1ncc(C3CCN(C)CC3)cn1)[C@H](CC(C)(C)C)CO2` [Compound 631], where the note is “Table 11”, the EC50 is less than 1000 nM. In addition, the Emax under setting [1] is more than 60%.

For the compound `Cc1cccc(C)c1-c1cc2nc(n1)NS(=O)(=O)c1cccc(c1)C(=O)N(Cc1ncc3c(n1)CCOC3)[C@H](CC(C)(C)C)CO2` [Compound 1362], under setting [8], the activation at 10 µM was more than 60%.

Turning to `Cc1cccc(C)c1-c1cc2nc(n1)NS(=O)(=O)c1cccc(c1)C(=O)N(Cc1cc3n(n1)CCC3)[C@H](CC(C)(C)C)CO2` [Compound 455], the activation at 10 µM under setting [6] is more than 600%.

Turning to `Cc1cccc(C)c1-c1cc2nc(n1)NS(=O)(=O)c1cccc(c1)C(=O)N(Cc1nc(N(C)C)cc(N(C)C)n1)[C@H](CC(C)(C)C)CO2` [Compound 322], where the note is “Table 12”, the EC50 was less than 1000 nM. Further, the Emax under setting [2] is more than 60%.

The values are drawn from patent US20240150377A1, “MODULATORS OF CYSTIC FIBROSIS TRANSMEMBRANE CONDUCTANCE REGULATOR” (VERTEX PHARMACEUTICALS INCORPORATED, priority 2020, published 2024).
